Results on 4 compounds are retold here after patent publication US11622961B2, “Combination therapies for treating cancer” (TESARO, INC., priority 2017, dated 2023).

The test system of data set [1] is primary Murine skin cancer model mSK6005. The settings on record: 50 mg/kg orally once daily for 21 days, compared to vehicle treated mice. The method, then:
This example describes the effects of treatment with an agent that inhibits PARP signaling on tumor microenvironment in a mouse model of colorectal cancer. 50 mg/kg of niraparib or vehicle (0.5% methylcellulose) was orally administered once daily for 21 days to C57BL/6 mice inoculated with primary Murine skin cancer model mSK6005 fragment developed from Apc^Min/J heterozygous background. Formalin-fixed, paraffin-embedded (FFPE) blocks were prepared from tumor samples collected from the mice. Immunohistochemistry (IHC) staining was performed on FFPE samples to assess expression of various markers for immune response in the tumor samples. Five fields in each staining, without necrosis, were randomly selected and imaged at 20× magnification.
All the images were analyzed with Image J software. For CD4, CD8, and FoxP3 IHC, positive cells were counted and the average of 5 fields positive cell numbers was taken as the score value of each case. For Iba1 IHC, the percentage of Iba1 positive expression area or mean gray was measured and taken as the score value of each case. The percentages of tumor cells at different intensity levels were evaluated according to the calculation below. Total Score=(% at 0)×0+(% at 1)×1+(% at 2)×2+(% at 3)×3

For data set [2], the system named is MDA-MB-436. From the text:
FIG. 5A depicts percentage of Ki67-positive CD4 and CD8 positive cells among total CD3 population in control or niraparib treated mice as assessed by flow cytometry.
FIG. 5B depicts tumor volume in MDA-MB-436 huNOG-EXL mice treated with niraparib or control.

Data set [3] relates to MDA-MB436 breast carcinoma cell line. Put plainly: MDA-MB436 HuNOG-EXL mice treated with niraparib and BLZ945: tumor volume. The data set is classed as in vivo. The settings on record: 200 mg/kg BLZ945 5 day on and 2 day off plus 80 mg/kg niraparib tosylate once daily, oral; FIG. 6A, 6B (day 26). The procedure:
This example describes the effects of treatment with an agent that inhibits PARP together with an agent that regulates activity in the tumor microenvironment in a mouse model of breast cancer. HuNOG-EXL mice inoculated with MDA-MB436 breast carcinoma cell line were orally administered: i) 80 mg/kg of niraparib tosylate once daily; ii) 200 mg/kg BLZ945 (an anti-CSF-1R that binds to CSF1R and inhibits CSF1R-mediated signal transduction pathways in tumor associated macrophages) on a 5 day on and 2 day off schedule; or iii) 80 mg/kg of niraparib tosylate and 200 mg/kg BLZ945 with the same dosing schedule as the single agent groups. Control mice were administered an isotype control antibody twice weekly via intraperitoneal injection.
Tumor volumes were recorded twice in a week with a gap of 2-3 days in between two measurements until tumor volume reached 600-1000 mm^3 in the control mice.

Data set [4] concerns the target T1, CTLA-4 (Homo sapiens, UniProt P16410).
T1 construct: host or cells: metastatic melanoma patients (endogenous CTLA-4)
T1 sequence (P16410 36-223): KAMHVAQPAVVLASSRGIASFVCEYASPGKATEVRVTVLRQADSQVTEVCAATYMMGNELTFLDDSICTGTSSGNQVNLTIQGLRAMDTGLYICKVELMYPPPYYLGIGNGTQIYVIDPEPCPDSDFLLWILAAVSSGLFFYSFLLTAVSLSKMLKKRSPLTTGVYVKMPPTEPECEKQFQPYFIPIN
The following applies: biopsy samples taken after tremelimumab treatment; cited from earlier work.

For data set [5] the following is noted: crystalline solid; cited from earlier work.

Take `NC(=O)c1cccc2cn(-c3ccc([C@@H]4CCCNC4)cc3)nc12` [niraparib, (3S)-3-[4-{7-(aminocarbonyl)-2H-indazol-2-yl}phenyl]piperidine]: in data set [1], the “expression of CD4 in tumor samples (IHC)” value is “Increased expression”, the “expression of CD8 in tumor samples (IHC)” value is “Increased expression”, the “expression of FoxP3 in tumor samples (IHC)” value is “Increased expression” and the “expression of Iba1 in tumor samples (IHC)” value is on record as “Increased expression”. In addition, the tumor growth entry in data set [2] (35 mg/kg QD×5/week (FIG. 5B)) is on record as “reduction of tumor growth”. Further, the “percentage of CD8+ cells” value in data set [2] (35 mg/kg QD×5/week, flow cytometry (FIG. 5A)) was “increased percentage of CD8+ cells”.
As to `CNC(=O)c1cc(Oc2ccc3nc(N[C@@H]4CCCC[C@H]4O)sc3c2)ccn1` [BLZ945], in data set [3], the “anti-tumor activity of the combination (tumor volume)” value is reported as “enhances anti-tumor activity of niraparib”.
Regarding tremelimumab: anti-CTLA-4 antibody, the “intratumoral infiltration by CD8+ cells” value in data set [4] was “highly significant increase”.
`Cc1ccc(S(=O)(=O)O)cc1.NC(=O)c1cccc2cn(-c3ccc([C@@H]4CCCNC4)cc3)nc12.O` [Niraparib tosylate monohydrate, (3 S)-3-[4-{7-(aminocarbonyl)-2H-indazol-2-yl}phenyl]piperidine tosylate monohydrate]: the “hygroscopicity of drug substance” value in data set [5] is “non-hygroscopic”.
